Here are results for four compounds from ChEMBL document CHEMBL3091437, “Peptide conjugates of 4-aminocyclophosphamide as prodrugs of phosphoramide mustard for selective activation by prostate-specific antigen (PSA)” (Bioorg Med Chem, 2013).

For data set [1], the target named is T1, Prostate-specific antigen (Homo sapiens, UniProt P07288).
T1 sequence (P07288 whole entry): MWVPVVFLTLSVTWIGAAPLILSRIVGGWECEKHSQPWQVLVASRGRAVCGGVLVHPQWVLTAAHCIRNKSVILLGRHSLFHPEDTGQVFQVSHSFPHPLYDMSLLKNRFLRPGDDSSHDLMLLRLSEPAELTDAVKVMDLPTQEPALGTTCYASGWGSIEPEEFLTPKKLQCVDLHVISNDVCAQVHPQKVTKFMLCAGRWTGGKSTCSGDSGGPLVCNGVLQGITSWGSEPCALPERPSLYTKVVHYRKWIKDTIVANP
In words: Prodrug activation assessed as PSA (unknown origin)-mediated digestion assessed as glutaryl-Hyp-Ala-Ser-Chg-Gln-OH level by LC-MS analysis.

For data set [2], the target named is T2, Prostate-specific antigen (PSA) (Homo sapiens, UniProt P07288).
T2 sequence (P07288 whole entry): T1 sequence (P07288 whole entry)
In words: Drug metabolism assessed as PSA (unknown origin)-mediated digestion assessed as compound remaining after 4 hrs by HPLC analysis. Type of data set: ADME. To be noted: PSA (prostate-specific antigen) enzyme, read-out: Drug metabolism.

Data set [3] deals with T1, Prostate-specific antigen. In words: Prodrug activation assessed as PSA (unknown origin)-mediated digestion assessed as half life at 1/100 enzyme-compound molar ratio by HPLC analysis.
Data set [4] concerns the target T2, Prostate-specific antigen (PSA). The experiment in a line: Drug metabolism assessed as PSA (unknown origin)-mediated digestion assessed as compound remaining after 50 hrs by HPLC analysis. Type of data set: ADME. To be noted: PSA (prostate-specific antigen) enzyme, read-out: Drug metabolism.

Numbered stars: 1 amine (or outer) side, 2 acyl side, 3 side chain; on linkers, the order of the positions; unused ones are H or OH. Square brackets hold non-standard residues; d marks the D form. Peptide text beside a SMILES is read from it. * marks the point of attachment. Doxorubicin(3'-N) = COc1cccc2c1C(=O)c1c(O)c3c(c(O)c1C2=O)C[C@@](O)(C(=O)CO)C[C@@H]3O[C@H]1C[C@H](N*)[C@H](O)[C@H](C)O1; X1 = O=P1(N(CCCl)CCCl)N[C@@H](N*)CCO1; Glutaryl = O=C(CCCC(=O)[*:2])[*:1]; Hyp = O=C(O)[C@@H]1C[C@@H](O)CN1; Chg = N[C@H](C(=O)O)C1CCCCC1; Suc = O=C(CCC(=O)[*:2])[*:1]

`C[C@H](NC(=O)[C@@H]1C[C@@H](O)CN1C(=O)CCCC(=O)O)C(=O)N[C@@H](CO)C(=O)N[C@H](C(=O)N[C@@H](CCC(N)=O)C(=O)N[C@H]1CCOP(=O)(N(CCCl)CCCl)N1)C1CCCCC1` (some centres not stated) (Glutaryl-[Hyp]AS[Chg]Q-X1): the Drug metabolism result in data set [1] was “Active”. For the same compound, the remaining at 4 h in data set [2] was under 10%. For the same compound, the t1/2 in data set [3] worked out at 0.917 h.
Turning to `CC(C)C[C@H](NC(=O)[C@H](CCCCN)NC(=O)[C@H](CO)NC(=O)[C@H](CO)NC(=O)[C@H](Cc1cnc[nH]1)NC(=O)CCC(=O)O)C(=O)N[C@@H](CCC(N)=O)C(=O)N[C@H]1CCOP(=O)(N(CCCl)CCCl)N1` (some centres not stated) (Suc-HSSKLQ-X1), the t1/2 in data set [3] worked out at 6.5 h.
For the compound `CC(C)C[C@H](NC(=O)[C@H](CCCCN)NC(=O)[C@H](CO)NC(=O)CCC(=O)O)C(=O)N[C@@H](CCC(N)=O)C(=O)N[C@H]1CCOP(=O)(N(CCCl)CCCl)N1` (some centres not stated) (Suc-SKLQ-X1), the remaining at 50 h in data set [4] is under 10%. In addition, the t1/2 in data set [3] is 12 h.
For the compound `COc1cccc2c1C(=O)c1c(O)c3c(c(O)c1C2=O)C[C@@](O)(C(=O)CO)C[C@@H]3O[C@H]1C[C@H](NC(=O)[C@H](CC(C)C)NC(=O)[C@H](CO)NC(=O)[C@H](CCC(N)=O)NC(=O)[C@@H](NC(=O)[C@H](CO)NC(=O)[C@H](C)NC(=O)[C@@H]2C[C@@H](O)CN2C(=O)CCCC(=O)O)C2CCCCC2)[C@H](O)[C@H](C)O1` [L-377202] (Glutaryl-[Hyp]AS[Chg]QSL-{Doxorubicin(3'-N)}), in data set [3], the t1/2 worked out at 0.5 h.
